The values that follow come from ChEMBL document CHEMBL1134804, “Studies leading to the identification of ZD1839 (IRESSA): an orally active, selective epidermal growth factor receptor tyrosine kinase inhibitor targeted to the treatment of cancer” (Bioorg Med Chem Lett, 2001).

For orientation: IC50 means the point on the concentration scale where inhibition reaches its midpoint.

Series [1] is described as follows: in vivo. As to conditions: mouse, po, 200 mg/kg.
In series [2] the target is Epidermal growth factor receptor (Homo sapiens, UniProt P00533).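 Also: tyrosine kinase inhibition of EGFR isolated from A431 vulval squamous carcinoma cells, measured in vitro with a TKI assay.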
Epidermal growth factor receptor, sequence (P00533 whole entry): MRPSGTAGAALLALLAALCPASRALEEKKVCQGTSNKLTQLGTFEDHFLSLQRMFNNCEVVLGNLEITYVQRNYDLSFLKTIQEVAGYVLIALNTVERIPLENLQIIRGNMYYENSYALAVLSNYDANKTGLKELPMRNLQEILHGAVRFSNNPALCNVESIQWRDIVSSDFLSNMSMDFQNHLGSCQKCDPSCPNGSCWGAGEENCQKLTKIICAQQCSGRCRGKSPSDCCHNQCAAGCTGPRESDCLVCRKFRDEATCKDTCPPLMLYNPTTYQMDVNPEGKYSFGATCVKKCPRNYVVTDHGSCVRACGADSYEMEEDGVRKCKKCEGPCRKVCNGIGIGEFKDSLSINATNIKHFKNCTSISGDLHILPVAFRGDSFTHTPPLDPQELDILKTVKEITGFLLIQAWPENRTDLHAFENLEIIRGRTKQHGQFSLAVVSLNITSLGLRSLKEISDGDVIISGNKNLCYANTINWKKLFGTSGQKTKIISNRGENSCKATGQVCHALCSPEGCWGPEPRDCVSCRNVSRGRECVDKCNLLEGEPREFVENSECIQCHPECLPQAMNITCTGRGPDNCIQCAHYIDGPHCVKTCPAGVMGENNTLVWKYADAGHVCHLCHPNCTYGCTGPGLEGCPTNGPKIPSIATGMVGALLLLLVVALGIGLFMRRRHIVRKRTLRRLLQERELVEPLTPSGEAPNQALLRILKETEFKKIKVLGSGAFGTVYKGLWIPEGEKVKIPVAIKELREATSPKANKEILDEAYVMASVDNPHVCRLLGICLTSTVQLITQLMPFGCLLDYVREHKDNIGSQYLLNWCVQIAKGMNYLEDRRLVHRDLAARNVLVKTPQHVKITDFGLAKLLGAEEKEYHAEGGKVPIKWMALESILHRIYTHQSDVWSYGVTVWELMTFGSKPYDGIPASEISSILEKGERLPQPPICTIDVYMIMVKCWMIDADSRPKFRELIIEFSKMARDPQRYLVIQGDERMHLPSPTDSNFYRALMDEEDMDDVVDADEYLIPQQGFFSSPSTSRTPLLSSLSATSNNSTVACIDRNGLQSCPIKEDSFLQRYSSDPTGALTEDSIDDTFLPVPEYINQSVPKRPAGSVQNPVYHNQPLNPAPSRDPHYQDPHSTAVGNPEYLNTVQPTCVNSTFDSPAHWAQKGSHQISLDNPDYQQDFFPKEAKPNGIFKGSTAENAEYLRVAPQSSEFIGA
Description: In vitro inhibitory activity against Epidermal growth factor receptor (EGFR-TK) from A431 vulval squamous carcinoma cells using TKI assay
Series [3] deals with KB 3-1. Briefly: cells. As to conditions: Homo sapiens.
Description: In vitro inhibitory activity against EGF-stimulated proliferation of KB2 cells in culture

For `COc1cc2ncnc(Nc3ccc(F)c(Cl)c3)c2cc1OCCCN(C)C`, the concentration at 6 h in series [1] is 34 µM.
Consider `COCCN(CCOC)CCOc1cc2c(Nc3ccc(F)c(Cl)c3)ncnc2cc1OC`, for which the results for the IC50 in series [2] and in series [3] were 61 nM and 170 nM, respectively. This compound had a concentration at 6 h in series [1] of 7.2 µM.
Compound `COc1cc2ncnc(Nc3cccc(C)c3)c2cc1OC` returned an IC50 in series [3] of 50 nM.
Consider `COCCNCCOc1cc2c(Nc3ccc(F)c(Cl)c3)ncnc2cc1OC`, for which the IC50 was found to be 8 nM in series [2] and 180 nM in series [3]. Also, the concentration at 6 h in series [1] came out at 11 µM.
In series [1], `COc1cc2ncnc(Nc3ccc(F)c(Cl)c3)c2cc1OCC(O)CN` (stereo not drawn) yielded a concentration at 6 h of 0.1 µM.
Regarding `COc1cc2ncnc(Nc3ccc(F)c(Cl)c3)c2cc1OCC(O)CN(CCO)CCO` (stereo not drawn), the figures for the IC50 in series [2] and in series [3] were 5 nM and 850 nM, respectively. Moreover, in series [1], the concentration at 6 h was found to be 0.2 µM.
With `CCN(CC)CCCOc1cc2c(Nc3ccc(F)c(Cl)c3)ncnc2cc1OC`, the concentration at 6 h in series [1] is 5.4 µM.
As to `COc1cc2ncnc(Nc3ccc(F)c(Cl)c3)c2cc1OCC(O)Cn1ccnc1` (stereo not drawn), the half-inhibitory concentration (IC50) came to 8 nM in series [2] and 380 nM in series [3]. The same compound came in with a concentration at 6 h in series [1] of 0.04 µM.
In series [3], `COc1cc2ncnc(Nc3ccc(F)c(Cl)c3)c2cc1OCCN1CCN(C)CC1` came in with an IC50 of 90 nM. For the same compound, in series [1], the concentration at 6 h was determined as 7.1 µM.
For the compound `COc1cc2ncnc(Nc3ccc(F)c(Cl)c3)c2cc1OCCNC(C)(CO)CO`, the IC50 in series [2] is 69 nM; in series [3], 910 nM. The compound also displayed a concentration at 6 h in series [1] of 0.1 µM.
As for `COc1cc2ncnc(Nc3ccc(F)c(Cl)c3)c2cc1OCCN1CCOCC1`, 380 nM corresponded to half-maximal inhibition in series [3] (IC50). Further, the concentration at 6 h in series [1] is 156 µM.
Turning to `CNCC(O)COc1cc2c(Nc3ccc(F)c(Cl)c3)ncnc2cc1OC` (stereo not drawn), the IC50 in series [2] was 5 nM; in series [3], 220 nM.
Turning to `COc1cc2ncnc(Nc3ccc(F)c(Cl)c3)c2cc1OC`, the concentration at 6 h in series [1] was determined as 16 µM.
Take `COc1cc2ncnc(Nc3ccc(F)c(Cl)c3)c2cc1OC[C@@H](O)CN1CCOCC1`: the IC50 in series [2] turned out to be 95 nM; in series [3], 160 nM. The compound further showed a concentration at 6 h in series [1] of 23 µM.
For `COc1cc2ncnc(Nc3ccc(F)c(Cl)c3)c2cc1OCCN(CCO)CCO`, in that order: 35 nM, 460 nM and 1 µM.
Consider `COc1cc2ncnc(Nc3ccc(F)c(Cl)c3)c2cc1OCCN1CCCC1`, for which the concentration at 6 h in series [1] stood at 8.2 µM.
Regarding `CCN(CC)CCOc1cc2c(Nc3ccc(F)c(Cl)c3)ncnc2cc1OC`, the IC50 in series [2] turned out to be 93 nM; in series [3], 310 nM. The same compound returned a concentration at 6 h in series [1] of 2.8 µM.
Consider `COc1cc2ncnc(Nc3ccc(F)c(Cl)c3)c2cc1OCCCN1CCCCC1`, for which the concentration at 6 h in series [1] was determined as 5.2 µM.
Turning to `CNCCOc1cc2c(Nc3ccc(F)c(Cl)c3)ncnc2cc1OC`, the IC50 in series [2] turned out to be 8 nM; in series [3], 350 nM. For the same compound, the concentration at 6 h in series [1] came out at 1.6 µM.
With `COc1cc2ncnc(Nc3ccc(F)c(Cl)c3)c2cc1OCCN(C)C`, the IC50 in series [2] was found to be 7 nM; in series [3], 120 nM. This compound showed a concentration at 6 h in series [1] of 52 µM.
Turning to `COc1cc2ncnc(Nc3ccc(F)c(Cl)c3)c2cc1OCCN1CCCCC1`, the concentration at 6 h in series [1] was found to be 16 µM.
On to `COc1cc2ncnc(Nc3ccc(F)c(Cl)c3)c2cc1OCCNC(C)(C)C`, for which the IC50 is 100 nM in series [2] and 320 nM in series [3]. The compound further displayed a concentration at 6 h in series [1] of 0.1 µM.
For `COc1cc2ncnc(Nc3ccc(F)c(Cl)c3)c2cc1OCCNC(C)C`, the IC50 in series [2] turned out to be 310 nM; in series [3], 220 nM. In series [1], the concentration at 6 h is 0.4 µM.
With `COc1cc2ncnc(Nc3ccc(F)c(Cl)c3)c2cc1OCCCN1CCCC1`, the concentration at 6 h in series [1] was determined as 8.8 µM.
For the compound `COc1cc2ncnc(Nc3ccc(F)c(Cl)c3)c2cc1OC[C@H](O)CN1CCOCC1`, the IC50 came to 67 nM in series [2] and 130 nM in series [3]. The same compound gave a concentration at 6 h in series [1] of 15 µM.
Compound `COc1cc2ncnc(Nc3ccc(F)c(Cl)c3)c2cc1OCCn1ccnc1` gave a concentration at 6 h in series [1] of 164 µM.
For `COc1cc2ncnc(Nc3ccc(F)c(Cl)c3)c2cc1OCCNCCN(C)C`, the IC50 in series [2] worked out at 2 nM; in series [3] it was 150 nM. In addition, in series [1], the concentration at 6 h came to 1.1 µM.
